# Source: US9060966B2, “Use of 2,5-dihydroxybenzene derivatives for the treatment of arthritis and pain” (priority 2006, dated 2015)
# Experiments:
# [1] = tested on: human retinal endothelial cells (HREC); test: Proliferation of human retinal endothelial cells (HREC, crystal violet); format: cell-based; settings: calcium 2,5-dihydroxybenzenesulfonate, 100 μM, 72 h, for comparison
# Procedure: (§1) 2A-5HBS was administered or not administered (control) after seeding the HREC in 24-well plates (7.5×10^3 per well) until they were fixed after 72 hours. The data are expressed as the mean±SEM of the percentage of the absorbance at 595 nm obtained in the control cultures, which is proportional to the number of cells stained with crystal violet. The data were obtained from 6 cultures for each treatment in two separate experiments. The white bar represents the value of the control cells, whereas the gray bars show the value in the presence of 2A-5HBS (500 and 1000 μM). * indicates p<0.05, *** p<0.001 with respect to the control by means of a single-factor analysis of variance (ANOVA) followed by a Student-Newman-Keuls post-analysis.
# as §1, with “5A-2HBS” for “2A-5HBS”, “striped” for “gray”, “***” for “*”, “indicates” for “indicates p<0.05, ***”
# 2,5-DHCME was administered or not administered (control) after seeding the HREC in 24-well plates (7.5×10^3 per well) until they were fixed after 72 hours. The data are expressed as the mean±SEM of the percentage of the absorbance at 595 nm obtained in the control cultures, which is proportional to the number of cells stained with crystal violet. The data were obtained from 6 cultures for each treatment in two separate experiments.
# Primary cultures of human retinal endothelial cells (HREC) were used. Cells were obtained from Cell Systems (Virginia, USA) and subcultured with CSC complete medium (Cell Systems). Cells at 2 to 5 passages were seeded in 24-well plates at 7,500 cells/well density and, once attached, the cells were treated o not treated (controls) with 2A-5HBS (500 and 1000 μM) or 5A-2HBS (500 and 1000 μM) and they were allowed to proliferate for 72 hours, with daily medium changes. After that, the proliferation of HREC was evaluated by staining the fixed cells with crystal violet. The number of cells is proportional to the amount of retained dye, which was spectrophotometrically determined by measuring absorbance at 595 nm after removing the dye from the cells. Data are expressed as the percentage of absorbance at 595 nm obtained in control conditions. Data were obtained from two different experiments performed in triplicate.
# Primary cultures of human retinal endothelial cells (HREC) were used. Cells were obtained from Cell Systems (Virginia, USA) and subcultured with CSC complete medium (Cell Systems). […] After that, the proliferation of HREC was evaluated by staining the fixed cells with crystal violet. The number of cells is proportional to the amount of retained dye, which was spectrophotometrically determined by measuring absorbance at 595 nm after removing the dye from the cells. Data are expressed as the percentage of absorbance at 595 nm obtained in control conditions. […]
# [2] = target: T1, fibroblast growth factor-1 (FGF-1) (Homo sapiens, UniProt P05230); test: Co-crystallisation with FGF-1 (crystal diffraction of complexes); format: binding
# T1 sequence (P05230 whole entry, species assumed): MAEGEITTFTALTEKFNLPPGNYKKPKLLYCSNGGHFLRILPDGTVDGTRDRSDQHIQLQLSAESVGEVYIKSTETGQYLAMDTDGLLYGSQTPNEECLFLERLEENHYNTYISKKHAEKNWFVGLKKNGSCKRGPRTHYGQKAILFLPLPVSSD
# Text: (§2) FIG. 24. 2-acetoxy-5-hydroxybenzenesulfonic acid co-crystallized with fibroblast growth factor-1. […] The compound occupies a place that is very close to that described occupied by 2,5-dihydroxybenzenesulfonic acid, the aromatic ring of which forms a cation-σ bond with the N^ε group of lysine 132, which is marked in panel A as reference. […] In panels A and B, the protein surface is colored according to its electrostatic potential (light grey: negative charge; dark grey: positive charge; white: lack of charge).
# as §2, with “25. 5-acetoxy-2-hydroxybenzenesulfonic” for “24. 2-acetoxy-5-hydroxybenzenesulfonic”, “cation-π” for “cation-σ”
# as §2, with “26. 2,5-diacetoxybenzenesulfonic” for “24. 2-acetoxy-5-hydroxybenzenesulfonic”, “cation-π” for “cation-σ”
# Based on the crystal diffraction of the FGF-1:2-acetoxy-5-hydroxybenzene sulfonic acid, FGF-1:5-acetoxy-2-hydroxybenzene sulfonic acid and FGF-1:2,5-diacetoxybenzene sulfonic acid complexes, the structures of the complexes were calculated and represented. FIGS. 24, 25 and 26, which show the surface of the dyed protein according to its electrostatic potential (light grey: negative charge; dark grey: positive charge; white: lack of charge), show the manner in which 2-acetoxy-5-hydroxybenzene sulfonic acid, 5-acetoxy-2-hydroxybenzene sulfonic acid and 2,5-diacetoxybenzene sulfonic acid interact, respectively, with FGF-1.
# [3] = target: T1, fibroblast growth factor-1 (FGF-1); test: Inhibition of fibroblast mitogenesis induced by FGF-1 in Balb/c 3T3 fibroblasts; format: cell-based; parameters: host or cells: added to Balb/c 3T3 fibroblasts (mouse); settings: quiescent Balb/c 3T3 cultures; potassium salts, except 2-acetoxy-5-hydroxybenzene sulfonate as calcium salt
# Procedure: The evaluated compounds were used in the form of potassium salt, except in the first case in which calcium salt was used. The experiments were carried out as described in Fernandez-Tornero C et al. J Biol Chem, 2003.
Structure (SMILES),HREC proliferation [1],acetoxyl groups of the compound when bound to the protein ([2]; electron density contoured at 1σ),"binding site on FGF-1 in the crystal complex ([2]; reference: site of 2,5-dihydroxybenzene sulfonic acid, lysine 132)",FGF-1 induced mitogenesis [3]
"O=S(=O)(O)c1cc(O)ccc1O [DHBS, 2,5-dihydroxybenzenesulfonic acid]",failed to significantly affect,,,
"CC(=O)Oc1ccc(OC(C)=O)c(S(=O)(=O)[O-])c1.[K+] [DABS, potassium 2,5-diacetoxybenzene sulfonate]",,conserve the acetoxyl groups,"a site that is very close to the one that has been described occupied by 2,5-dihydroxybenzene sulfonic acid",Inhibition
